In experiment [1] the target is full-length MALT1 protein (Strep-MALT1(1-824)-His) (Homo sapiens (Human), UniProt Q9UDY8). Nature of the experiment: MALT1 Biochemical Protease Assay (Ac-LRSR-AMC substrate). The conditions noted are these: 10 nM FL MALT1, 200 μM Ac-LRSR-AMC, 4 h at RT; read-out: MALT1_Biochemical activity (Ac-LRSR-amc) IC50. The protocol:
The tetrapeptide LRSR is coupled to AMC (7-amino-4-methylcoumarin) and provides a quenched, fluorescent substrate for the MALT1 protease (SM Biochemicals). […] Test compound concentrations ranged from 30 μM to 0.5 nM using 11 dilution steps (1:3). Background signal was measured from control wells containing assay buffer without enzyme which functions as low control (LC). High control (HC) values were generated using the reaction with enzyme but no compound treatment. Compounds were pre-incubated with MALT1 enzyme for 50 minutes at RT. […] The reaction was subsequently incubated for 4 h at RT and fluorescence was measured.
LC=Median of the low control values
An estimate of the slope of the plot in terms of the Hill coefficient was also obtained. IC50 Calculation:
[formula] With • UB=upper bound • LB=lower bound Used in “Lexis Dose Response Curve Fitting” Version 1.0.

Experiment [2] deals with IL6 secretion by TMD8 ABC-DLBCL cells. Nature of the experiment: Human IL6 Mesoscale assay (TMD-8). It counts as cell-based. The conditions noted are these: Homo sapiens, TMD8; TMD-8 cells, 24 h. The protocol: (§1) NFKB signaling regulates the secretion of multiple cytokines, including IL6 and IL10. Secretion of the cytokines IL6 and IL10 by TMD8 or OCI-LY3 ABC-DLBCL cells was measured using a mesoscale assay. Inhibition of NFKB signaling by MALT1 or BTK inhibitors results in a decrease of IL6/10 secretion.
(§2) TMD8 or OCI-LY3 cells were propagated in RPMI-1640 (Sigma Aldrich) supplemented with 10% fetal bovine serum (HyClone), 1 mM sodium pyruvate (Invitrogen), 2 mM L-glutamine (Sigma Aldrich) and 1% PenStrep (Sigma Aldrich). Cell passage number should not exceed 30. Cells should be kept between 0.5-2.5 million cells per mL during culturing and cells should be supplemented every 2-3 days with fresh 50 μM beta-mercaptoenthanol. No beta-mercaptoethanol was used during the mesoscale assay.
(§3) For the Mesoscale assay, 100,000 TMD8 or OCI-LY3 cells were seeded per well into black-colored 96-well plates with clear bottom (Corning #3904) and test compounds were added in 9 dilution steps (1:2) ranging from 15 μM to 58.6 nM (final DMSO concentration 0.3%). DMSO control wells were used to determine the maximum signal (High Control (HC)). Treatment with the BTK inhibitor RN486 in a dose range from 30 nM to 131 pM (9 dilutions of 1:2) served as a positive control for NFKB pathway inhibition and was used to determine the maximum inhibition (Low Control (LC)). Compounds and cells were incubated for 24 h at 37° C. and 5% CO2 (assay volume is 150 μL). After 24 h of incubation 50 μL of the supernatant was transferred to a MSD plate (V-Plex Proinflammation Panel 1 (human) kit, Mesoscale (MSD)) and incubated for 2 h with vigorous shaking (600 rpm) at room temperature. Following incubation, plates were washed 3× with PBS+0.05% Tween-20 and 25 μL detection antibody solution (IL6 & IL10 antibodies in diluent 3 (MSD)) was added per well followed by 2 h of incubation with vigorous shaking (600 rpm) at room temperature. After 3× washes with PBS+0.05% Tween-20, plates were incubated with 150 μL 2× Read Buffer T and read on SECTOR imager.

Experiment [3] deals with IL10 secretion by TMD8 ABC-DLBCL cells. Nature of the experiment: Human IL10 Mesoscale assay (TMD-8). It is filed as cell-based. The conditions noted are these: Homo sapiens, TMD8; TMD-8 cells, 24 h. As for the experimental part: as §1, §2, §3

SMILES strings stand for the structures. Where only a bound is given, the exact number is not on record here.

full-length MALT1 protein (Strep-MALT1(1-824)-His), sequence (Q9UDY8 whole entry): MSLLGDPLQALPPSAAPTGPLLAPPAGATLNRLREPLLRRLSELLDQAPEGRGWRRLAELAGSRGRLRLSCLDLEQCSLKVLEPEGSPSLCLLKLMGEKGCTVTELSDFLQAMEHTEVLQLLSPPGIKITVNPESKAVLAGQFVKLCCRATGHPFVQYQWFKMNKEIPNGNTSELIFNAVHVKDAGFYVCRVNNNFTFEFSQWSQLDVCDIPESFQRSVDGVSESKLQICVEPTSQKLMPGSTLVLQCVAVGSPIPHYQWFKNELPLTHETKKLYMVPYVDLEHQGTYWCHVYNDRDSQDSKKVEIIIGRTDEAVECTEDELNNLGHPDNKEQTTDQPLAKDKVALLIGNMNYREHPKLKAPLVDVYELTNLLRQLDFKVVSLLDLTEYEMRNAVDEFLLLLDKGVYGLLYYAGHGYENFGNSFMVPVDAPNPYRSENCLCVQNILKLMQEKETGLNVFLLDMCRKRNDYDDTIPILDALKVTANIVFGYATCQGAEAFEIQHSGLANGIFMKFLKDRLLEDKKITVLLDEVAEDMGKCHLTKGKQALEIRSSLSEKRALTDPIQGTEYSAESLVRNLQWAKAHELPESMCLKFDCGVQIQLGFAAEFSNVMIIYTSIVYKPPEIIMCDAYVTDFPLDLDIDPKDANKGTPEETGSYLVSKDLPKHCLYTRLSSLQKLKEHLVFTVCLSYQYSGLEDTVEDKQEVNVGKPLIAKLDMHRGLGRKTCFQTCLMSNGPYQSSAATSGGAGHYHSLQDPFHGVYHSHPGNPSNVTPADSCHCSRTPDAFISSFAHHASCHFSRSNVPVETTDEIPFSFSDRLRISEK

The term IC50 denotes the concentration at which inhibition is half-maximal. As to `O=C(Nc1cnc(-n2nccn2)c(Cl)c1)c1cnn(-c2cccc3nc([C@H]4CCCO4)ccc23)c1C(F)(F)F` (single isomer, unassigned) [Cpd 440, (*R)—N-(5-chloro-6-(2H-1,2,3-triazol-2-yl)pyridin-3-yl)-1-(2-(tetrahydrofuran-2-yl)quinolin-5-yl)-5-(trifluoromethyl)-1H-pyrazole-4-carboxamide], the IC50 was 1580 nM in experiment [1], 186 nM in experiment [2] and 162 nM in experiment [3].
For `C[C@H](O)c1ncc(-n2ncc(C(=O)Nc3cnc(-n4nccn4)c(Cl)c3)c2C(F)(F)F)c2ccccc12` (single isomer, unassigned) [Cpd 443, (*S)—N-(5-chloro-6-(2H-1,2,3-triazol-2-yl)pyridin-3-yl)-1-(1-(1-hydroxyethyl)isoquinolin-4-yl)-5-(trifluoromethyl)-1H-pyrazole-4-carboxamide], the IC50 in experiment [1] is 13 nM; in experiment [2], 46 nM; in experiment [3], 50 nM.
For `O=C(Nc1cnc(-c2ncco2)c(Cl)c1)c1cnn(-c2cccc3ncccc23)c1C(F)(F)F` [Cpd 91, N-(5-chloro-6-(oxazol-2-yl)pyridin-3-yl)-1-(quinolin-5-yl)-5-(trifluoromethyl)-1H-pyrazole-4-carboxamide], the half-inhibitory concentration (IC50) came to 15 nM in experiment [1], 151 nM in experiment [2] and 155 nM in experiment [3].
For `N#Cc1cc(NC(=O)c2cnn(-c3ccnc4c(F)cccc34)c2C(F)(F)F)cnc1-n1nccn1` [Cpd 92, N-(5-cyano-6-(2H-1,2,3-triazol-2-yl)pyridin-3-yl)-1-(8-fluoroquinolin-4-yl)-5-(trifluoromethyl)-1H-pyrazole-4-carboxamide], in that order: 19 nM, 102 nM and 132 nM.
With `N#Cc1cc(NC(=O)c2cnn(-c3cnnc4ccccc34)c2C(F)(F)F)cnc1-n1nccn1` [Cpd 93, 1-(Cinnolin-4-yl)-N-(5-cyano-6-(2H-1,2,3-triazol-2-yl)pyridin-3-yl)-5-(trifluoromethyl)-1H-pyrazole-4-carboxamide], the IC50 came to 60 nM in experiment [1], 447 nM in experiment [2] and 501 nM in experiment [3].
`N#Cc1cc(NC(=O)c2cnn(-c3nccc4occc34)c2C(F)(F)F)cnc1-n1nccn1` [Cpd 94, N-(5-cyano-6-(2H-1,2,3-triazol-2-yl)pyridin-3-yl)-1-(furo[3,2-c]pyridin-4-yl)-5-(trifluoromethyl)-1H-pyrazole-4-carboxamide]: the figures for the IC50 in experiment [1], in experiment [2] and in experiment [3] were 19 nM, 89 nM and 105 nM, respectively.
Take `N#Cc1cc(NC(=O)c2cnn(-c3nncc4ccccc34)c2C(F)(F)F)cnc1-n1nccn1` [Cpd 102, N-(5-cyano-6-(2H-1,2,3-triazol-2-yl)pyridin-3-yl)-1-(phthalazin-1-yl)-5-(trifluoromethyl)-1H-pyrazole-4-carboxamide]: the IC50 in experiment [1] came out at 42 nM; in experiment [2], 110 nM; in experiment [3], 186 nM.
In the same order, the values of `N#Cc1cc(NC(=O)c2cnn(-c3nccn4ccnc34)c2C(F)(F)F)cnc1-n1nccn1` [Cpd 103, N-(5-Cyano-6-(2H-1,2,3-triazol-2-yl)pyridin-3-yl)-1-(imidazo[1,2-a]pyrazin-8-yl)-5-(trifluoromethyl)-1H-pyrazole-4-carboxamide] are 1510 nM, over 15000 nM and over 15000 nM.
In the case of `O=C(Nc1cnc(-c2ncc[nH]2)c(Cl)c1)c1cnn(-c2cncc3ccccc23)c1C(F)(F)F` [Cpd 104, N-(5-chloro-6-(1H-imidazol-2-yl)pyridin-3-yl)-1-(isoquinolin-4-yl)-5-(trifluoromethyl)-1H-pyrazole-4-carboxamide], the half-maximal inhibitory concentration (IC50) in experiment [1] is 204 nM; in experiment [2], over 15000 nM; in experiment [3] it was over 15000 nM.
Turning to `N#Cc1cc(NC(=O)c2cnn(-c3cccc4nccnc34)c2C(F)(F)F)cnc1-n1nccn1` [Cpd 105, N-(5-Cyano-6-(2H-1,2,3-triazol-2-yl)pyridin-3-yl)-1-(quinoxalin-5-yl)-5-(trifluoromethyl)-1H-pyrazole-4-carboxamid], the IC50 in experiment [1] stood at 58 nM; in experiment [2], 851 nM; in experiment [3], 813 nM.
In the same order, the values of `O=C(Nc1cnc(OC(F)F)c(Cl)c1)c1cnn(-c2cncc3ccccc23)c1C(F)(F)F` [Cpd 106, N-(5-chloro-6-(difluoromethoxy)pyridin-3-yl)-1-(isoquinolin-4-yl)-5-(trifluoromethyl)-1H-pyrazole-4-carboxamide] are 447 nM, 1260 nM and 617 nM.
In the same order, the values of `O=C(Nc1cnc(N2CCCC2=O)c(Cl)c1)c1cnn(-c2cncc3ccccc23)c1C(F)(F)F` [Cpd 107, N-(5-chloro-6-(2-oxopyrrolidin-1-yl)pyridin-3-yl)-1-(isoquinolin-4-yl)-5-(trifluoromethyl)-1H-pyrazole-4-carboxamide] are 1290 nM, 3470 nM and 1180 nM.
In the same order, the values of `Cc1cc2nccc(-n3ncc(C(=O)Nc4cnc(-n5nccn5)c(C#N)c4)c3C(F)(F)F)c2o1` [Cpd 151, N-(5-cyano-6-(2H-1,2,3-triazol-2-yl)pyridin-3-yl)-1-(2-methylfuro[3,2-b]pyridin-7-yl)-5-(trifluoromethyl)-1H-pyrazole-4-carboxamide] are 214 nM, 224 nM and 200 nM.
As for `N#Cc1cc(NC(=O)c2cnn(-c3cccc4nc(N)nn34)c2C(F)(F)F)cnc1-n1nccn1` [Cpd 159, 1-(2-amino-[1,2,4]triazolo[1,5-a]pyridin-5-yl)-N-(5-cyano-6-(2H-1,2,3-triazol-2-yl)pyridin-3-yl)-5-(trifluoromethyl)-1H-pyrazole-4-carboxamide], the IC50 in experiment [1] was 105 nM; in experiment [2], over 15100 nM; in experiment [3] it was 955 nM.
On to `O=C(Nc1cnc(-n2nccn2)c(Cl)c1)c1c(F)nn(-c2cccc3ncccc23)c1C(F)(F)F` [Cpd 160, N-(5-chloro-6-(2H-1,2,3-triazol-2-yl)pyridin-3-yl)-3-fluoro-1-(quinolin-5-yl)-5-(trifluoromethyl)-1H-pyrazole-4-carboxamide], for which the half-inhibitory concentration (IC50) in experiment [1] was 389 nM; in experiment [2], 95 nM; in experiment [3] it was 93 nM.
For the molecule `Cc1cc(NC(=O)c2cnn(-c3cccc4c(=O)[nH]ccc34)c2C(F)(F)F)c(C)nc1-n1nccn1` [Cpd 161, N-(2,5-dimethyl-6-(2H-1,2,3-triazol-2-yl)pyridin-3-yl)-1-(1-oxo-1,2-dihydroisoquinolin-5-yl)-5-(trifluoromethyl)-1H-pyrazole-4-carboxamide], the figures for the IC50 in experiment [1], in experiment [2] and in experiment [3] were 282 nM, over 15100 nM and over 15100 nM, respectively.
In the case of `Cc1nc(-n2cccn2)c(Cl)cc1NC(=O)c1cnn(-c2cccc3c(=O)[nH]ccc23)c1C(F)(F)F` [Cpd 170, N-(5-chloro-2-methyl-6-(1H-pyrazol-1-yl)pyridin-3-yl)-1-(1-oxo-1,2-dihydroisoquinolin-5-yl)-5-(trifluoromethyl)-1H-pyrazole-4-carboxamide], the half-inhibitory concentration (IC50) in experiment [1] is 135 nM; in experiment [2], 339 nM; in experiment [3] it was 112 nM.
As to `Cc1cc(-n2nccn2)c(Cl)cc1NC(=O)c1cnn(-c2cccc3c(=O)[nH]ccc23)c1C(F)(F)F` [Cpd 171, N-(5-chloro-2-methyl-4-(2H-1,2,3-triazol-2-yl)phenyl)-1-(1-oxo-1,2-dihydroisoquinolin-5-yl)-5-(trifluoromethyl)-1H-pyrazole-4-carboxamide], the results for the IC50 in experiment [1], in experiment [2] and in experiment [3] were 71 nM, 91 nM and 60 nM, respectively.
